In brackets after ≈: the same amount, converted by molar mass. Each block holds one compound with its values, some of them ahead of it.
Legend:
Proteus mirabilis = assay: Compound was tested for the inhibitory activity against Proteus mirabilis carbenicillinase
[1] = biological target: T1, Beta-lactamase PSE-4 (Pseudomonas aeruginosa) (UniProt P16897); assay: Compound was tested for the inhibitory activity against Pseudomonas aeruginosa PSE-4 serine beta-lactamase
T1 sequence (whole entry): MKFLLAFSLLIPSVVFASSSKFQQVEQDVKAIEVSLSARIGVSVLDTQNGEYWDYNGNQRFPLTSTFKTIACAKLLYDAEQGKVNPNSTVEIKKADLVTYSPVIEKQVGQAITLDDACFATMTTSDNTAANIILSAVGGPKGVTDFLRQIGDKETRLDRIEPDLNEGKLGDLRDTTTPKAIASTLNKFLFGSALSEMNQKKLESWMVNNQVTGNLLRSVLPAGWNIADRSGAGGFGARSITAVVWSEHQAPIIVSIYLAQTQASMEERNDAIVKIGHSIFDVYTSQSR

[2] = biological target: T2, SHV-5 extended spectrum beta-lactamase (Escherichia coli) (UniProt Q6REX6); assay: Compound was tested for the inhibitory activity against Escherichia coli SHV-5 serine beta-lactamase
T2 sequence (whole entry): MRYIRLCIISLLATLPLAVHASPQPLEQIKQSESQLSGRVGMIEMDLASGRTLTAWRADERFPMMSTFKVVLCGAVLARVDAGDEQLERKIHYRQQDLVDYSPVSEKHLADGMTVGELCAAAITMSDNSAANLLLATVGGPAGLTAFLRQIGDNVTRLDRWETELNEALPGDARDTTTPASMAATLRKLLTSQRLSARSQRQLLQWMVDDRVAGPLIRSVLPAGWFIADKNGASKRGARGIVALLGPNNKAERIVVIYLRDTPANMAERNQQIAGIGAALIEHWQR

[3] = biological target: Beta-lactamase (Staphylococcus aureus) (UniProt P00807); assay: Inhibitory activity against Staphylococcus aureus penicillinase
[4] = biological target: Beta-lactamase TEM (Escherichia coli) (UniProt P62593); assay: Inhibitory activity against Escherichia coli TEM-1 serine beta-lactamase
[5] = biological target: Beta-lactamase OXA-1 (Escherichia coli) (UniProt P13661); assay: Compound was tested for the inhibitory activity against Escherichia coli OXA-1 serine beta-lactamase
[6] = biological target: Beta-lactamase (Enterobacter cloacae) (UniProt P05364); assay: Compound was tested for the inhibitory activity against Enterobacter cloacae P99 serine beta-lactamase
Staphylococcus aureus [7] = assay: Minimum inhibitory concentration of 4 ug/ml compound in combination with amoxycillin against Staphylococcus aureus MB9 organism; type: functional
[8] = biological target: Beta-lactamase (Enterobacter cloacae) (UniProt P05364); assay: Minimum inhibitory concentration of 10 ug/ml compound in combination with amoxycillin against Enterobacter cloacae N-1 organism; type: functional
Staphylococcus aureus [9] = assay: Minimum inhibitory concentration against Staphylococcus aureus MB9 organism; type: functional
Staphylococcus aureus [10] = assay: Minimum inhibitory concentration of 10 ug/ml compound in combination with amoxycillin against Staphylococcus aureus MB9 organism; type: functional
[11] = biological target: Beta-lactamase (Enterobacter cloacae) (UniProt P05364)
Description: Minimum inhibitory concentration against Enterobacter cloacae N-1 organism

[12] = biological target: Beta-lactamase (Enterobacter cloacae) (UniProt P05364); remark: listed apart in the source
Description: Antibacterial activity against Enterobacter cloacae N-1 organism, activity expressed as MIC(minimum inhibitory concentration)

[13] = biological target: Beta-lactamase TEM (Escherichia coli) (UniProt P62593)
Staphylococcus aureus [14] = assay: Antibacterial activity against Staphylococcus aureus MB9 organism, activity expressed as MIC(minimum inhibitory concentration); type: functional
[15] = biological target: Beta-lactamase (Enterobacter cloacae) (UniProt P05364); assay: Minimum inhibitory concentration of 10 ug/ml compound in combination with amoxycillin against Enterobacter cloacae N-1 organism,; type: functional
[16] = biological target: Beta-lactamase (Enterobacter cloacae) (UniProt P05364); remark: listed apart in the source
Description: Minimum inhibitory concentration of 4 ug/ml compound in combination with amoxycillin against Enterobacter cloacae N-1 organism

[17] = biological target: Beta-lactamase TEM (Escherichia coli) (UniProt P62593); assay: Minimum inhibitory concentration of 4 ug/ml compound in combination with amoxycillin against Escherichia coli E96P organism; type: functional

Chain of Beta-lactamase OXA-1 (Escherichia coli) (P13661 whole entry): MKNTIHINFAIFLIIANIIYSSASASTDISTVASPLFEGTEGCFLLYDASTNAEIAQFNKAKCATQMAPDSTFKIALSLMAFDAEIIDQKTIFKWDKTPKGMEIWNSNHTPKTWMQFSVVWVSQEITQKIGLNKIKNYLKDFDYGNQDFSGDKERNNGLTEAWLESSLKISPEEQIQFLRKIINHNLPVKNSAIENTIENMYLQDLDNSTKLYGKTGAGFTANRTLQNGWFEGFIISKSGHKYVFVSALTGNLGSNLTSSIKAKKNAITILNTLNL
Chain of Beta-lactamase TEM (Escherichia coli) (P62593 whole entry): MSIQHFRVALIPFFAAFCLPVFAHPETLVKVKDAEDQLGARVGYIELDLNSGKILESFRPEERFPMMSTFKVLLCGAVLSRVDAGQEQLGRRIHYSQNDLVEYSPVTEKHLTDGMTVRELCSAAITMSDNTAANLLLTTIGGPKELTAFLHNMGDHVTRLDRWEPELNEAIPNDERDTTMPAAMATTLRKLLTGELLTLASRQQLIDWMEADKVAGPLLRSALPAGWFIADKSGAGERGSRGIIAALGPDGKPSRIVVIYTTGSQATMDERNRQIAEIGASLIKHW
Chain of Beta-lactamase (Enterobacter cloacae) (P05364 21-381 limits assumed): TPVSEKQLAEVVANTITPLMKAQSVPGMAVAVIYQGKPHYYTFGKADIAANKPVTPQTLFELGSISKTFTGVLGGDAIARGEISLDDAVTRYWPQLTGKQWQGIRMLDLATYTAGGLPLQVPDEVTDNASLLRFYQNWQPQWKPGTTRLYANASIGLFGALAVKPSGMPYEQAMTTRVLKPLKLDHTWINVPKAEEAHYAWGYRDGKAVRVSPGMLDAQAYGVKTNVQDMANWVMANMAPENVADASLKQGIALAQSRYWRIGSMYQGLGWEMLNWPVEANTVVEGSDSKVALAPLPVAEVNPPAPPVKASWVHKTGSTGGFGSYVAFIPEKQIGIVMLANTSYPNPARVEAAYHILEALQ

Compound: O=C(NCP(=O)(O)N[C@H](Cc1ccccc1)C(=O)O)OCc1ccccc1
ID50 (Proteus mirabilis): > 100 µM | ID50 [1]: > 100 µM | ID50 [2]: > 100 µM | ID50 [3]: > 100 µM | ID50 [4]: > 100 µM | ID50 [5]: > 100 µM | ID50 [6]: 3.8 µM

ID50 [3]: > 100 µM | ID50 [4]: > 100 µM | ID50 [6]: 67 µM
Compound: COP(=O)(CNC(=O)OCc1ccccc1)N1CCC[C@@H]1C(=O)O (stereo partly specified)

Compound: CC1(C)S[C@@H]2[C@H](NC(=O)[C@H](N)c3ccc(O)cc3)C(=O)N2[C@H]1C(=O)O.O=C(O)[C@H]1/C(=C/CO)O[C@@H]2CC(=O)N21 [listing 1 of 2 here]
MIC (Staphylococcus aureus [7]): 0.12 µg/mL

Compound: CC1(C)S[C@@H]2[C@H](NC(=O)C(N)c3ccc(O)cc3)C(=O)N2[C@H]1C(=O)O.O=C(NCP(=O)(O)N[C@H](Cc1ccccc1)C(=O)O)OCc1ccccc1
MIC [8]: 128 µg/mL

Compound: CC1(C)S[C@@H]2[C@H](NC(=O)C(N)c3ccc(O)cc3)C(=O)N2[C@H]1C(=O)O.O=C(NCP(=O)(O)NC(C(=O)O)c1ccccc1)OCc1ccccc1 (stereo unspecified)
MIC [8]: 32 µg/mL

Compound: O=C(O)CNP(=O)(O)CNC(=O)OCc1ccccc1
ID50 (Proteus mirabilis): > 100 µM | ID50 [1]: > 100 µM | ID50 [2]: > 100 µM | ID50 [3]: > 100 µg/mL | ID50 [4]: > 100 µg/mL | ID50 [5]: 30 µM | ID50 [6]: 2.29 µg/mL

Compound: CC1(C)S[C@@H]2[C@H](NC(=O)[C@H](N)c3ccc(O)cc3)C(=O)N2[C@H]1C(=O)O [AMOXICILLIN]
MIC (Staphylococcus aureus [9]): 256 µg/mL (≈ 701 µM)

Compound: CC1(C)S[C@@H]2[C@H](NC(=O)C(N)c3ccc(O)cc3)C(=O)N2[C@H]1C(=O)O.O=C(O)CCNP(=O)(O)CNC(=O)OCc1ccccc1 (stereo partly specified)
MIC [8]: 44 µg/mL

Compound: O=C(O)CCNP(=O)(O)CNC(=O)OCc1ccccc1
ID50 (Proteus mirabilis): > 100 µM | ID50 [1]: > 100 µM | ID50 [2]: 33 µM | ID50 [3]: > 25 µM | ID50 [4]: > 50 µM | ID50 [5]: 14 µM | ID50 [6]: 0.87 µM

ID50 (Proteus mirabilis): > 100 µM | ID50 [1]: > 100 µM | ID50 [2]: > 100 µM | ID50 [3]: > 100 µM | ID50 [4]: > 100 µM | ID50 [5]: > 100 µM | ID50 [6]: 4.16 µM
Compound: O=C(NCP(=O)(O)N[C@@H](C(=O)O)c1ccccc1)OCc1ccccc1

ID50 [3]: > 100 µM | ID50 [4]: > 100 µM | ID50 [6]: 54 µM
Compound: COP(=O)(CNC(=O)OCc1ccccc1)N1CCC[C@H]1C(=O)O (stereo partly specified)

Compound: CC1(C)S[C@@H]2[C@H](NC(=O)C(N)c3ccc(O)cc3)C(=O)N2[C@H]1C(=O)O.O=C(NCP(=O)([O-])N[C@H](Cc1ccccc1)C(=O)[O-])OCc1ccccc1.[Li+].[Li+]
MIC (Staphylococcus aureus [10]): 64 µg/mL

Compound: CC1(C)S[C@@H]2[C@H](NC(=O)C(N)c3ccc(O)cc3)C(=O)N2[C@H]1C(=O)O.O=C(O)CC(NP(=O)(O)CNC(=O)OCc1ccccc1)c1ccccc1 (stereo unspecified)
MIC [8]: 16 µg/mL

Compound: CC1(C)S[C@@H]2[C@H](NC(=O)C(N)c3ccc(O)cc3)C(=O)N2[C@H]1C(=O)O.O=C(NCP(=O)([O-])N[C@@H](Cc1ccccc1)C(=O)[O-])OCc1ccccc1.[Li+].[Li+]
MIC (Staphylococcus aureus [10]): 64 µg/mL

Compound: CC1(C)S[C@@H]2[C@H](NC(=O)C(N)c3ccc(O)cc3)C(=O)N2[C@H]1C(=O)O.O=C([O-])CNP(=O)([O-])CNC(=O)OCc1ccccc1.[Li+].[Li+] (stereo partly specified)
MIC (Staphylococcus aureus [10]): 64 µg/mL

Compound: CC1(C)S[C@@H]2[C@H](NC(=O)[C@H](N)c3ccc(O)cc3)C(=O)N2[C@H]1C(=O)O
MIC [11]: 256 µg/mL (≈ 701 µM)

Compound: O=C(NCP(=O)(O)N[C@@H](Cc1ccccc1)C(=O)O)OCc1ccccc1
ID50 (Proteus mirabilis): > 100 µM | ID50 [1]: 15 µM | ID50 [2]: > 100 µM | ID50 [3]: > 33 µM | ID50 [4]: > 50 µM | ID50 [5]: 60 µM | ID50 [6]: 0.75 µM

Compound: O=C(O)[C@H]1/C(=C/CO)O[C@@H]2CC(=O)N21 [CLAVULANIC ACID]
ID50 (Proteus mirabilis): 0.51 µM | ID50 [1]: 0.235 µM | MIC [12]: 32 µg/mL (≈ 161 µM) | ID50 [2]: 0.013 µM | MIC [13]: 32 µg/mL (≈ 161 µM) | ID50 [3]: 0.38 µM | ID50 [4]: 0.315 µM | ID50 [5]: 3.4 µM | ID50 [6]: 310 µM | MIC (Staphylococcus aureus [14]): 32 µg/mL (≈ 161 µM)

ID50 [3]: > 100 µM | ID50 [4]: > 100 µM | ID50 [6]: > 100 µM
Compound: O=C(O)CNCP(=O)(O)CNC(=O)OCc1ccccc1

Compound: CC1(C)S[C@@H]2[C@H](NC(=O)C(N)c3ccc(O)cc3)C(=O)N2[C@H]1C(=O)O.O=C(NCP(=O)(O)N[C@@H](Cc1ccccc1)C(=O)O)OCc1ccccc1
MIC [8]: 128 µg/mL

Compound: O=C(O)CC(NP(=O)(O)CNC(=O)OCc1ccccc1)c1ccccc1 (stereo unspecified)
ID50 (Proteus mirabilis): > 100 µM | ID50 [1]: 83 µM | ID50 [2]: 63 µM | ID50 [3]: > 35 µM | ID50 [4]: > 50 µM | ID50 [5]: 46 µM | ID50 [6]: 0.87 µM

Compound: CC1(C)S[C@@H]2[C@H](NC(=O)C(N)c3ccc(O)cc3)C(=O)N2[C@H]1C(=O)O.O=C(O)CNP(=O)(O)CNC(=O)OCc1ccccc1 (stereo partly specified)
MIC [15]: 32 µg/mL

Compound: CC1(C)S[C@@H]2[C@H](NC(=O)C(N)c3ccc(O)cc3)C(=O)N2[C@H]1C(=O)O.O=C([O-])CCNP(=O)([O-])CNC(=O)OCc1ccccc1.[Li+].[Li+] (stereo partly specified)
MIC (Staphylococcus aureus [10]): 32 µg/mL

Compound: CC1(C)S[C@@H]2[C@H](NC(=O)C(N)c3ccc(O)cc3)C(=O)N2[C@H]1C(=O)O.O=C(NCP(=O)([O-])NC(C(=O)[O-])c1ccccc1)OCc1ccccc1.[Li+].[Li+] (stereo unspecified)
MIC (Staphylococcus aureus [10]): 64 µg/mL

Compound: CC1(C)S[C@@H]2[C@H](NC(=O)[C@H](N)c3ccc(O)cc3)C(=O)N2[C@H]1C(=O)O.O=C(O)[C@H]1/C(=C/CO)O[C@@H]2CC(=O)N21 [listing 2 of 2 here]
MIC [16]: 256 µg/mL | MIC [17]: 16 µg/mL

Compound: CC1(C)S[C@@H]2[C@H](NC(=O)C(N)c3ccc(O)cc3)C(=O)N2[C@H]1C(=O)O.O=C([O-])CC(NP(=O)([O-])CNC(=O)OCc1ccccc1)c1ccccc1.[Li+].[Li+] (stereo unspecified)
MIC (Staphylococcus aureus [10]): 8 µg/mL

ID50 [3]: > 100 µM | ID50 [4]: > 100 µM | ID50 [6]: > 100 µM
Compound: COP(=O)(CNC(=O)OCc1ccccc1)N1CSC(C)(C)[C@@H]1C(=O)O (stereo partly specified)

From ChEMBL document CHEMBL1127929, “The synthesis and serine -lactamase inhibitory activity of some phosphonamidate analogues of dipeptides” (1994)
